Our source for the inhibition and MIC values is ChEMBL document CHEMBL1136232, “Novel inhibitors of an emerging target in Mycobacterium tuberculosis; substituted thiazolidinones as inhibitors of dTDP-rhamnose synthesis” (2003).

Broadly, the inhibition is the relative decrease from the control value, in per cent. By MIC is commonly meant the lowest concentration found to suppress growth.

The test system of experiment [1] is Mycobacterium tuberculosis. The experiment is described as follows: Percentage inhibition against Mycobacterium tuberculosis at a concentration of 20 uM. It is filed as functional.
The subject of experiment [2] is Mycobacterium tuberculosis. As to the kind of experiment: Inhibitory activity against Mycobacterium tuberculosis H37Ra. It is filed as functional.
Experiment [3] concerns Mycolicibacterium smegmatis. The experiment is described as follows: Percentage inhibition against Rm1BCD at 20 uM.
For experiment [4], the system named is Mycolicibacterium smegmatis. The experiment is described as follows: Percentage inhibition against Rm1C at 20 uM.
The subject of experiment [5] is Mycolicibacterium smegmatis. The experiment is described as follows: Percentage inhibition against Rm1D at 20 uM; NA is not active.
The test system of experiment [6] is Mycolicibacterium smegmatis. The experiment is described as follows: Percentage inhibition against Rm1C at 20 uM; NA is not active.
The subject of experiment [7] is Mycolicibacterium smegmatis. As to the kind of experiment: Percentage inhibition against Rm1D at 20 uM.

Values after ≈ are worked out from the molar mass of the structure shown. Active and inactive are the calls of the source. The rule behind the calls is not given here. Some results are limits rather than exact numbers.

With `O=C(O)C(Cc1cc2ccccc2[nH]1)N1C(=O)CSC1c1ccc(-c2ccccc2)cc1` (stereo unspecified), the inhibition at 20 µM in experiment [1] was found to be 66.5%. In addition, in experiment [2], the MIC worked out at 50 µg/mL (≈ 113 µM).

For the compound `CCOC(=O)C(C(C)C)N1C(=O)C(C)SC1c1ccc(-c2ccccc2)cc1` (stereo unspecified), the inhibition at 20 µM in experiment [1] was determined as 52.5%. The compound further returned an MIC in experiment [2] of 50 µg/mL (≈ 126 µM).

As to `CCOC(=O)CCC(C(=O)OCC)N1C(=O)CSC1c1cccc(Oc2ccccc2)c1` (stereo unspecified), the inhibition at 20 µM in experiment [1] was determined as 64%. In addition, the MIC in experiment [2] was 50 µg/mL (≈ 109 µM).

As to `CC[C@H](C)C(C(=O)OC)N1C(=O)CSC1c1ccc(N(C)C)cc1` (stereo partly specified), in experiment [1], the inhibition at 20 µM stood at 110%. For the same compound, the MIC in experiment [2] was over 200 µg/mL.

In the case of `CCn1c2ccccc2c2cc(C3SC(C)C(=O)N3C(Cc3c[nH]c4ccccc34)C(=O)O)ccc21` (stereo unspecified), the inhibition at 20 µM in experiment [1] is 70.5%. The compound also showed a minimal inhibitory concentration (MIC) in experiment [2] of 50 µg/mL (≈ 100 µM).

Compound `CCn1c2ccccc2c2ccc(C3SCC(=O)N3C(Cc3c[nH]c4ccccc34)C(=O)OC)cc21` (stereo unspecified) had an MIC in experiment [2] of over 200 µg/mL. The inhibition in experiment [3] stood at 45%; in experiment [4], 48%. Besides, the inhibition result in experiment [5] is “inactive”.

Turning to `CCOC(=O)C(C(C)C)N1C(=O)C(C)SC1c1ccc2c(c1)c1ccccc1n2CC` (stereo unspecified), the inhibition at 20 µM in experiment [1] amounted to 52%. Also, inhibition of growth in experiment [2] (MIC) required 25 µg/mL (≈ 57 µM).

For the compound `CCOC(=O)C(C)N1C(=O)CSC1c1cccc(Oc2ccccc2)c1` (stereo unspecified), the inhibition at 20 µM in experiment [1] was 51%. In addition, 50 µg/mL (≈ 135 µM) was the least that counted as inhibitory in experiment [2] (MIC).

`COc1cc(C2SC(C)C(=O)N2C(Cc2ccc([N+](=O)[O-])cc2)C(=O)O)cc(OC)c1O` (stereo unspecified) had an MIC in experiment [2] of 25 µg/mL (≈ 54.1 µM). Also, the inhibition in experiment [3] was found to be 42%; in experiment [7] it was 71%. In experiment [6], the inhibition entry was “inactive”.

With `COC(=O)C(CCSC)N1C(=O)CSC1c1ccc(N(C)C)cc1` (stereo unspecified), the inhibition at 20 µM in experiment [1] was 100%. The compound further returned a minimal inhibitory concentration (MIC) in experiment [2] of over 200 µg/mL.

Take `CCOC(=O)C(C(C)C)N1C(=O)C(C)SC1c1cccc(OC)c1O` (stereo unspecified): the inhibition at 20 µM in experiment [1] was 60%. The same compound registered an MIC in experiment [2] of 25 µg/mL (≈ 68 µM).
